pIC50: −log10 of the molar value. Where two headings read alike, the source gives them in different places.
Key:
Assay type in all cases: biochemical
full-length WRN helicase [1] = biological target: T1, full-length WRN helicase (Homo sapiens, UniProt Q14191); test: Radiometric helicase inhibitor assay, full-length WRN unwinding of FORKR DNA substrate; settings: for remaining activity at 50 µM: read-out: % Control WRN Helicase Activity; for pIC50: radiometric assay, compound 0-100 μM, read-out: IC50;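 as to all read-outs here: WRN preincubated with compound 15 min at room temperature, then unwinding run 15 min at 37 °C with 2 mM ATP, relative to WRN unwinding without compound (100%)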
T1 construct: Full length recombinant WRN [18], BLM [19], and FANCJ [20] proteins were purified from insect cells; made in house; host or cells: insect cells
T1 sequence (Q14191 whole entry): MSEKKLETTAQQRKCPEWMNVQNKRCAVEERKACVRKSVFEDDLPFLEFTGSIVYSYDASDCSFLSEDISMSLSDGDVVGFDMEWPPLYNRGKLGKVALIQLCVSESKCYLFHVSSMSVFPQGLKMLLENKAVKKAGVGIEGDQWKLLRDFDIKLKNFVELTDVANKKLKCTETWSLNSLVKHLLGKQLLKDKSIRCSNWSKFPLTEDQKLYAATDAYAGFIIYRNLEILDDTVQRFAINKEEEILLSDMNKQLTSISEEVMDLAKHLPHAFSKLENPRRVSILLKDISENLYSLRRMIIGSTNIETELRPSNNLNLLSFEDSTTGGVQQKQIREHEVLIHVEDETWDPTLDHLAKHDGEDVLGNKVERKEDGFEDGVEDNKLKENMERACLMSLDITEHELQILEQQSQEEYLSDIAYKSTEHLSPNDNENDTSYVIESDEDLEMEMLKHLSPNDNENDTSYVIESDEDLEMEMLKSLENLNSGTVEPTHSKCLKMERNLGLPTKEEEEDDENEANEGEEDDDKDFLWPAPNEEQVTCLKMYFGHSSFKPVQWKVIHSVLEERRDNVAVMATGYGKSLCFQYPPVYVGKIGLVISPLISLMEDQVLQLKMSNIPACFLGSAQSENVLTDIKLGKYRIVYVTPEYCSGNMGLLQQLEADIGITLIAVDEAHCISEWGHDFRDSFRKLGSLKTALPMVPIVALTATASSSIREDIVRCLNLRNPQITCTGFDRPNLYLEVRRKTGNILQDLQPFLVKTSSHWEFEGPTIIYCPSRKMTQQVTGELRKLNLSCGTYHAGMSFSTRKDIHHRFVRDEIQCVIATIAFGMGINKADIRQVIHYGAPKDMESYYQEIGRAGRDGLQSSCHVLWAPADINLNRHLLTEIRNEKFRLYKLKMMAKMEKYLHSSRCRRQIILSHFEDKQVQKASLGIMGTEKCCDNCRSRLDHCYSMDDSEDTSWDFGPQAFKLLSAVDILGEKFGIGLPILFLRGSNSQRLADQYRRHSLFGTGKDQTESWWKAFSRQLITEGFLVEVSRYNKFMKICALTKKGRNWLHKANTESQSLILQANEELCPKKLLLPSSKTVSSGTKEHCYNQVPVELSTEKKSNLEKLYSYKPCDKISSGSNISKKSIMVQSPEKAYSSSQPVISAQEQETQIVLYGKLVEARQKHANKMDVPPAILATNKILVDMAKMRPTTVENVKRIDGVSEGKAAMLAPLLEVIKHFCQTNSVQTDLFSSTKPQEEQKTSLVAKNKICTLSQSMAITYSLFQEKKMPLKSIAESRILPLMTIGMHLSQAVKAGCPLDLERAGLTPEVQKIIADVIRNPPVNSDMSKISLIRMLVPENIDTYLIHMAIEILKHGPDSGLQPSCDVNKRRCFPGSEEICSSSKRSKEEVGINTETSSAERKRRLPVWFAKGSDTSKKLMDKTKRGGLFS
Procedure: Fifteen μL of reaction buffer was added to a microcentrifuge tube followed by the addition of 1 μL of selected compounds (0.5–100 μM final concentration) or DMSO. One μL of WRN (full length), RECQ1, FANCJ, BLM or control was added to each reaction and incubated at room temperature for 15 min. Three μL of substrate (0.5 nM FORKR and 2 mM ATP final concentrations) were added to all reactions which were incubated at 37°C for 15 min. Reactions were stopped with the addition of 20 μL of 2X STOP dye containing EDTA, glycerol, bromphenol blue and xylene cyanol. Samples were electrophoresed for 1.5 hr at 200 V on a 12% non-denaturing PAGE gel in 1X TBE Buffer.
The compounds were tested at a single concentration of 50 μM in the radiometric helicase assay with full-length recombinant WRN protein (1 nM) and the FORKR DNA substrate (0.5 nM) as described in the Materials and Methods section.
For each compound, we performed titrations over a wide range of concentrations with a fixed concentration of full-length WRN protein (1 nM), and quantitated unwinding as a percentage of full-length WRN unwinding of the FORKR DNA substrate (0.5 nM) in the absence of compound (Fig 6A and 6B, S3 Fig). […] In addition to determining an IC50 value for each compound, we also conducted helicase assays to determine the reversibility of inhibition by each compound tested. […] The reaction was diluted 100-fold with the addition of DNA substrate (0.5 nM final concentration) and ATP (2 mM final concentration) and unwinding was measured (Fig 7A–7D, S4 Fig). Inhibition was either classified as reversible, partially reversible, minimally reversible, or irreversible based on the ability of helicase activity to recover after dilution of the compound 100-fold.

[2] = biological target: T2, GST-WRN500-946 helicase domain fragment (Homo sapiens, UniProt Q14191); test: High-throughput fluorometric helicase screen, PubChem AID 651768; settings: initial qHTS; 20 nM GST-WRN500-946; 100 nM FORKF; NA = Not Active; read-out: IC50 (μM) Assay ID 651768
T2 construct: made in house; host or cells: insect cells
T2 sequence (Q14191 500-946): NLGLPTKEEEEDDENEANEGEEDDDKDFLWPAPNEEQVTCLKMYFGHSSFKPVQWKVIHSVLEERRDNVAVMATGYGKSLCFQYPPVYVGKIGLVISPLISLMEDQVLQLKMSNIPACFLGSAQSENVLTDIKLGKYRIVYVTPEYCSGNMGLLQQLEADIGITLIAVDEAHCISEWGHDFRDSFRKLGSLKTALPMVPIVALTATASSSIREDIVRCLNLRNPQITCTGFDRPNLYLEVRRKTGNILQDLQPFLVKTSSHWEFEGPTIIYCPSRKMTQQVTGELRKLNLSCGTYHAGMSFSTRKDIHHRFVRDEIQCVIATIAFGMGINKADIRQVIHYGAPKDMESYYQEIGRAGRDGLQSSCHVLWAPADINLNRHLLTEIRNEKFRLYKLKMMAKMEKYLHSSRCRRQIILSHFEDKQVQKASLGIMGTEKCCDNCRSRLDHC
Procedure: (§1) The structures of the members of this collection are available in the PubChem portal https://pubchem.ncbi.nlm.nih.gov/. For both the 350,000 small molecule collection and the LOPAC^1280 screens, 3 μL of GST-WRN500-946 or reaction buffer only were dispensed using a solenoid-valve nanoliter dispenser into a black 1536-well plate (Greiner). Twenty three nL of each serially diluted compound (0.08–50 μM for the LOPAC screen and 0.003–114 μM for the larger library screen) or control were added to each well using a Kalypsys pintool equipped with a 1536-pin array. Plates were incubated at room temperature for 15 min, followed by initiation of the reactions via the addition of 1 μL of substrate (100 nM FORKF and 2 mM ATP final concentrations). Plates were transferred to a ViewLux high-throughput CCD imager and fluorescence was measured in kinetic mode using an excitation filter of 525 nm and emission filter of 598 nm.
(§2) Zʹ factor, a measure for assay quality control was calculated using the formula Z′ = 1−(3σS^++3σS^−)∕|μS^+−μS^−| as described previously. In this formula, 3σS^+ represents 3 standard deviations from the mean of positive signals while 3σS^− represents 3 standard deviations from the mean of negative signals. μS^+ and μS^− represent the mean of positive signals and negative signals respectively. Percent activity was derived using in-house software (http://tripod.nih.gov/curvefit/). Dose-response curves were classified as described previously.
(§3) A collection of approximately 350,000 compounds is available for screening which has been assembled from multiple sources to provide diverse chemical scaffolds with known purity, identity and solubility. To perform the high-throughput screen of these compounds, we needed to produce approximately 50 milligrams of recombinant WRN helicase fragment. To accomplish this, we cloned the helicase domain fragment into several plasmids for either insect cell or bacterial expression to optimize expression and yield. We selected expression plasmids for insect cell expression with either a GST or MBP tag (image A in S1 Fig) and purified the protein (image B in S1 Fig). The GST-WRN500-946 fragment isolated from insect cells was used in the high throughput screen with the conditions described in Fig 2C (20 nM GST-WRN500-946, 100 nM FORKF DNA substrate) and a summary of the results can be found on PubChem (National Center for Biotechnology Information. PubChem BioAssay Database; Assay Identifier (AID) = 651768, https://pubchem.ncbi.nlm.nih.gov/bioassay/651768). […] To verify the active compounds, approximately 600 hit molecules were retested in a confirmatory screen also found on PubChem (National Center for Biotechnology Information. PubChem AID = 720497, https://pubchem.ncbi.nlm.nih.gov/bioassay/720497). Of these, a little less than four hundred compounds were confirmed as active compounds.

full-length WRN helicase [3] = biological target: T1, full-length WRN helicase; test: Radiometric helicase inhibitor reversibility assay (100-fold dilution); set-up: key to Reversibility: (-) = irreversible; (+) = minimally reversible; (++) = partially reversible; (+++) = reversible; settings: for Reversibility: WRN 100 nM preincubated at 10-fold IC50, diluted 100-fold, unwinding 0-16 min; for Reversibility of inhibition (in words): full-length WRN
Procedure: WRN (full length, 100 nM concentration) was incubated with each small molecule inhibitor at a concentration 10-fold higher than the IC50 for that inhibitor, in a 10 μL reaction at room temperature. 1.5 μL of this reaction was added to 148.5 μL of reaction salts with 2 mM ATP, 0.5 nM FORKR reducing the full length WRN concentration to 1 nM and the drug concentration to 10-fold less than its IC50. Reactions were placed at 37°C and 20 μL of reaction were removed at specific intervals (0–16 min) and quenched with 20 μL of 2X STOP dye containing EDTA, glycerol, bromphenol blue and xylene cyanol. Samples were electrophoresed for 1.5 hr at 200 V on a 12% non-denaturing PAGE gel in 1X TBE Buffer.
Eighteen compounds were selected based on potency of inhibition in both the screening and radiometric assays, and exclusion of compounds with undesired chemical features. For each compound, we performed titrations over a wide range of concentrations with a fixed concentration of full-length WRN protein (1 nM), and quantitated unwinding as a percentage of full-length WRN unwinding of the FORKR DNA substrate (0.5 nM) in the absence of compound (Fig 6A and 6B, S3 Fig). […] In addition to determining an IC50 value for each compound, we also conducted helicase assays to determine the reversibility of inhibition by each compound tested. Details of the assay can be found in the Materials and Methods section, but briefly 100 nM WRN was incubated with each compound at a concentration 10-fold higher than its IC50 value. The reaction was diluted 100-fold with the addition of DNA substrate (0.5 nM final concentration) and ATP (2 mM final concentration) and unwinding was measured (Fig 7A–7D, S4 Fig). Inhibition was either classified as reversible, partially reversible, minimally reversible, or irreversible based on the ability of helicase activity to recover after dilution of the compound 100-fold. Table 2 summarizes the IC50 values and reversibility for each compound and includes IC50 values obtained from the screens for comparison.

[4] = biological target: T2, GST-WRN500-946 helicase domain fragment; test: Confirmatory fluorometric helicase screen, PubChem AID 720497; settings: 20 nM GST-WRN500-946, 100 nM FORKF, NA = Not Active, read-out: IC50 (μM) Assay ID 720497
Procedure: as §1, §2, §3

[5] = biological target: T3, WRN helicase domain fragment (Homo sapiens, UniProt Q14191); test: WRN-hel-f2 protocol qHTS confirmatory (15 compound confirmatory assay); settings: NA = Not Active
T3 construct: GST (N); made in house
T3 sequence (Q14191 500-946): as above
Procedure: as §1

[6] = 50 μM compound, full-length WRN 1 nM, FORKR 0.5 nM
[7] = full-length WRN 1 nM, FORKR 0.5 nM

Structure (SMILES) | remaining activity at 50 µM (full-length WRN helicase [1]; [6]) [%] | pIC50 (full-length WRN helicase [1]; [7]) | IC50 [2] [µM] | Reversibility (full-length WRN helicase [3]) | IC50 [4] [µM] | IC50 [5] [µM] | Reversibility of inhibition (in words) (full-length WRN helicase [3]) | remaining activity at 50 µM (full-length WRN helicase [1]) [%]
COc1ccc(N2CCN(C(=O)Cc3c(C(=O)O)c(C)cn3C)CC2)cc1 [NCGC00137930-02] | 99 |  |  |  |  |  |  | 
COc1ccc(N[S+](=O)([O-])c2cc(C(=O)Nc3ccc4nc(C)sc4c3)ccc2C)cc1 [NCGC00348187-01] |  |  |  |  |  |  |  | 83
CC(C)(C)c1ccc(-c2nc(SCCCOc3ccccc3)n3[nH]c(=O)cc3n2)cc1 [NCGC00128735-02] | 5 | 5.30 | 50.1 | +++ |  | 28.1 |  | 
CN(C)CC(C(=O)Cc1ccccc1)c1ccccc1 (centres unmarked) [MLS002608145-02] |  |  |  |  |  |  |  | 93
CCc1ccc(NC(=O)c2ccc3c(O)c([S+](=O)([O-])c4ccc(Cl)cc4)c(=O)[nH]c3c2)cc1 [NCGC00123016-02] |  | 4.30 | 26.6 | +++ |  | 39.8 |  | 20
CCCN(CCC)CCCNC(=O)c1cc2c(-c3ccc(OC)c(OC)c3)nn(C)c2s1 [NCGC00108865-03] | 109 |  |  |  |  |  |  | 
O=C(c1cccc(-n2cccc2)c1)N1CCN(S(=O)(=O)c2ccccc2)CC1 [MLS001139594-03] | 4 | 5.00 | 4.7 | - | 4.3 | 0.35 |  | 
Cc1cn(C)c(CC(=O)N2CCN(c3ccccc3F)CC2)c1C(=O)O [NCGC00137904-02] | 108 |  |  |  |  |  |  | 
Cc1ccc(C(=O)Nc2nnc([S+](=O)([O-])N(C)Cc3ccco3)s2)cc1 [NCGC00120906-02] |  | 5.05 | 37.6 | - |  | 5.6 | irreversible | 33
COc1ccc2nc(O)c(-c3noc(-c4cccs4)n3)cc2c1 [NCGC00307457-02] | 42 |  |  |  |  |  |  | 
O=c1[nH]c2ccccc2n2c(-c3ccccc3)nnc12 [MLS000540817-03] | 99 |  |  |  |  |  |  | 
Cc1ccc(N2CCN(c3cnn(-c4nc5ccccc5s4)c(=O)c3Cl)CC2C)cc1 (centres unmarked) [NCGC00295201-02] | 9 | 5.00 | 35.4 | +++ |  | 25.1 |  | 
O=C(O)c1ccccc1-c1ccc(/C=C/c2cc(C(F)(F)F)nc(O)n2)o1 [MLS000715904-02] | 76 |  |  |  |  |  |  | 
COc1ccccc1Nc1ccc2c(O)cc(S(=O)(=O)O)cc2c1 [MLS002608028-02] | 3 | 5.70 | 2.7 | +++ | 6.1 | 0.35 |  | 
O=c1cc(N2CCNCC2)nc2sc(-c3ccncc3)nn12 [NCGC00183602-01] | 0 | 5.30 | 7.5 | - | 6.1 | 6 |  | 
COc1ccc(-c2cc(C(F)(F)F)nc([S+](=O)([O-])CCC(=O)Nc3ccc(C)cc3)n2)cc1 [NCGC00317517-02] |  |  |  |  |  |  |  | 93
Oc1c(C(c2ccccc2)N2CCOCC2)ccc2ccccc12 (centres unmarked) [MLS002694128-02] | 0 |  |  |  |  |  |  | 
CCOc1ccc(-c2nc(SCC(=O)Nc3ccc(C)c(C)c3)n3[nH]c(=O)cc3n2)cc1 [NCGC00128865-02] | 20 | 5.00 | 21.1 | ++ | 15.2 | 1.8 |  | 
COc1ccccc1N1CCN(C(=O)Cc2c(C(=O)O)c(C)cn2C)CC1 [NCGC00137902-02] | 113 |  |  |  |  |  |  | 
Cc1ccc(-c2nc(SCc3ccc(Br)cc3)n3[nH]c(=O)cc3n2)cc1 [NCGC00129037-02] | 7 | 5.05 | 16.8 | - | 13.6 | 12.5 |  | 
Cc1ccc(CN(C)C(=O)CCc2nc(O)c3c4c(sc3n2)CCCC4)o1 [MLS001160745-02] | 8 | 4.96 | 44.6 | + | 9.6 | 22.4 |  | 

Second part, led by results:

remaining activity at 50 µM (full-length WRN helicase [1]; [6]) [%] | pIC50 (full-length WRN helicase [1]; [7]) | IC50 [2] [µM] | Reversibility (full-length WRN helicase [3]) | IC50 [4] [µM] | IC50 [5] [µM] | Structure (SMILES) | Reversibility of inhibition (in words) (full-length WRN helicase [3]) | remaining activity at 50 µM (full-length WRN helicase [1]) [%]
30 | 4.60 | 11.9 | - | 7.6 |  | CC1=C(C(=O)Nc2ccccc2)C(c2ccc[nH]2)n2ncnc2N1 (centres unmarked) [NCGC00132363-04] |  | 
10 | 5.70 | 16.8 | + | 13.6 | 1.26 | COC(=O)c1cc(NC(=O)c2ccc3c(c2)NC(=O)c2ccccc2S3)cc(C(=O)OC)c1 [NCGC00113056-02] |  | 
13 | 4.82 | 39.8 | - |  | 12.5 | CN(Cc1ccco1)[S+](=O)([O-])c1nnc(NC(=O)c2cccc(Cl)c2)s1 [NCGC00120928-02] | irreversible | 
65 |  |  |  |  |  | Cc1cc(OC(C)C(=O)Nc2cccc(-c3nc4ccccc4o3)c2)cc(C)c1Cl (centres unmarked) [NCGC00119189-02] |  | 
100 |  |  |  |  |  | Cc1nn(-c2ccccc2)c2nc(-c3ccco3)cc(C(=O)O)c12 [MLS000060726-02] |  | 
64 |  |  |  |  |  | Cc1cc(OCC(=O)Nc2ccc(N3CCN(C(=O)c4ccco4)CC3)cc2)cc(C)c1Cl [MLS000582679-02] |  | 
92 |  |  |  |  |  | Oc1ccc(C2=CSc3nnc(-c4ccco4)n3N2)cc1O [MLS000551562-03] |  | 
69 |  |  |  |  |  | O=C(Nc1nncs1)c1cc(-c2ccco2)nc2ccccc12 [MLS002249549-02] |  | 
5 |  |  |  |  |  | Cc1ccc(C)c(NC(=O)CN(C)C(=O)c2cccc(-n3cccc3)c2)c1 [MLS001161412-02] |  | 
93 |  |  |  |  |  | CCc1nnc(NC(=O)c2cc(-c3ccc(C)o3)nc3ccccc23)s1 [MLS002179845-02] |  | 

Source: article PMC6326523, “A high-throughput screen to identify novel small molecule inhibitors of the Werner Syndrome Helicase-Nuclease (WRN)” (PLoS ONE, 2019)
